# Measurements reported in US8420810B2, “Bicyclic heterocyclic compound” (Ono Pharmaceutical, Co., Ltd., priority 2007, dated 2013).
# What was measured:
# human CRF receptor I [1] = biological target: T1, human CRF receptor I (Homo sapiens, UniProt P34998); experiment: Binding assay (125I-CRF, membrane fraction); conditions: 125I-CRF 0.25 nM, membrane fraction of CHO-K1 cells expressing human CRF receptor I, room temperature 2 hours
# T1 construct: expressed in transfected cells; host or cells: CHO-K1
# T1 sequence (P34998 24-415): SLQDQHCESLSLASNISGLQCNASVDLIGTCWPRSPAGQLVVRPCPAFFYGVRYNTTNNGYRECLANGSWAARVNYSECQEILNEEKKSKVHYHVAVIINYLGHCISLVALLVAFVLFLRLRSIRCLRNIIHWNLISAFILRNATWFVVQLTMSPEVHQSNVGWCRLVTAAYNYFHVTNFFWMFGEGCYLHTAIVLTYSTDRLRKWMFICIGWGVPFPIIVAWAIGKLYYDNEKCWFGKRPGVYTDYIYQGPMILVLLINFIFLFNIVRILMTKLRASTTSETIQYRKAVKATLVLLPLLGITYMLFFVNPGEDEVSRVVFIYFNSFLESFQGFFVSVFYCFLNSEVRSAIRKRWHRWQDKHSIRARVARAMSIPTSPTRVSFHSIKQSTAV
# Experimental: The forced-expression cell strain of the human CRF receptor I (parent strain is CHO-K1 cell) was cultured until the cell was confluent and collected with a scraper. The collected cells were washed twice with PBS, and were suspended with an ice-colded binding assay buffer (Tris-HCl (50 mM, pH 7.0), EDTA (2 mM, pH 8.0), and MgCl2 (10 mM)). After fractured with a dounce-type homogenizer, the suspended cells were centrifuged at 10,000 g, and a membrane fraction was collected. The collected membrane fraction was resuspended with a little amount of the binding assay buffer, thereafter diluted with the binding assay buffer so as to have a concentration of 1 mg/mL. The obtained membrane fraction was used for a binding assay.
# ^125I-CRF was diluted with the binding assay buffer so as to have a concentration of 0.5 nM, whereby 50 μL of the diluted ^125I-CRF was added to a siliconized 1.5 mL tube. Next, evaluation compounds diluted at appropriate times, DMSO (for general binding), or 100 μM of CRF (for non-specific binding), was added to a […]. Finally, 50 μL of the membrane fraction was added thereto and the reaction was started (final concentration of ^125I-CRF was 0.25 nM). The tube was incubated at room temperature for 2 hours. After the reaction, the tube was centrifuged at 20,000 g in order to collect the membrane fraction. The supernatant was discarded, and the pellet was washed with an ice-colded PBS/0.01% TritonX-100. A membrane binding count was measured using a y counter. The specific binding count was obtained by subtracting the non-specific count from the measured count.
# human CRF receptor I [2] = biological target: T1, human CRF receptor I; experiment: Receptor antagonistic activity (cyclic AMP assay); type: cell-based; conditions: accumulated cyclic AMP, human/rat CRF stimulation, cells expressing human CRF receptor I, 37° C. 15 minutes
# Experimental: The forced expression cell strain of the human CRF receptor I was cultured at 37° C. under 5% carbon dioxide and 95% air by using a Ham's F-12 medium (F-12 nutrient mixture) containing 10% bovine fetal serum and 1% antibiotic substance-antifungal agent. On the previous day before the cyclic AMP was measured, the cells were inoculated into a 96-well plate in an amount of 1×10^4 cell/well. On the measurement day, the cells were washed twice with a Ham's F-12 medium, whereby a solution of Ham's F-12 medium/1 mM 3-isobutyl-1-methylxanthine (assay medium) (178 μL) was added to each well. After the incubation at 37° C. for 15 minutes, the solutions (2 μL) of evaluation compound in various concentrations were added thereto, or DMSO (2 μL) was added to a CRF group and a blank group. An assay medium (20 μL) containing 10 nM human/rat CRF was added to wells of an evaluation compound group and the CRF group. An assay medium (20 μL) containing 0.00001% acetic acid was added to the blank group. Each group was further incubated at 37° C. for 15 minutes. The supernatant was removed and ice-colded to stop the reaction. Note that the reactions of 2 wells were the same in all reactions. The measurement for accumulated cyclic AMP amount in cells was carried out by using a cyclic AMP Biotrak enzyme immunoassay system (manufactured by GE Healthcare). The accumulated cyclic AMP amounts were calculated by subtracting mean values of corresponding 2 wells in the blank group from that of 2 wells. The IC50 values were calculated with non-linear regression analysis by defining logarithm concentration of the evaluation compound as independent variable and an accumulated cyclic AMP amount as dependent variable.
# SD rats = experiment: Elevated plus maze test with swim-stressed rat; type: in vivo; conditions: orally 1 hour before the test
# Experimental: 2 open arms with the same lengths (50×10 cm) and 2 close arms (a 30 cm wall was provided) with the same lengths (50×10 cm) were arranged in orthogonal manner at a height of 50 cm from the floor to provide an elevated crossroad maze system. In 70 cm above the both open arms, white light was provided, whereby illuminance was maintained at constant.
# SD rats of 7 weeks of age (CHARLES RIVER LABORATORIES JAPAN) were forcedly made to swim for 120 seconds in a pool (40×30×38 cm) at 22° C. of water temperature and 25 cm of water depth. After 9 minutes of soaking stress loading, the rat was put on the center of the system. The activity for 5 minutes of the rat was analyzed with an automatic activity-tracking analysis system (EthoVision Version 3.0, Noldus Information Technology) to calculate the dwell time (second) on the open arm.
# Note that no soaking stress was loaded on the control group. In addition, 20% Wellsolve (registered trademark) (5 mL/kg) was orally administered to the vehicle group and evaluation compounds in various concentrations were orally administrated to the evaluation compound administration group 1 hour before the test.
# rats = experiment: Rat learned helplessness test; type: in vivo; conditions: oral, once a day for 6 days and 1 hour before the shock training
# Experimental: The learned helplessness test was carried out using a two-way shuttle box which is partitioned into two by a gate which can be opened and closed so that travel to right and left becomes possible. On the 1st day of the learned helplessness test, rats were put into the device under un-escapable condition by closing the gate, and a total of 90 times of an electric shock (0.5 mA) was applied to them through a floor grid for 10 seconds at 2 seconds' intervals (shock training). Rats of the control group were left as they are for the same period of time (for 18 minutes) without applying the electric shock. After 24 hours of the shock training, rats were put into the device under escapable condition by opening the gate to carry out an escape test. After 5 minutes of acclimatization, a light stimulus and a sound stimulus (conditioning stimuli) were applied simultaneously for 5 seconds, and subsequent electric shock (un-conditioning stimulus) was applied for 10 seconds. This was regarded as one trial. A case of continuously receiving the electric shock without escape was regarded as escape failure. A total of 40 trials were carried out by setting the interval between respective trials to 5 seconds, and frequency of the escape failure was recorded.
# In this connection, the vehicle (20% solvent) and evaluation compound were repeatedly administered once a day for 6 days and further orally administered 1 hour before the shock training.
# Light stability test = type: physicochemical; conditions: 2500 Lux (D65 lamp), 25° C., HPLC
# Experimental: After weighing 5 mg of an evaluation compound, it was put into a test tube made of glass which was then sealed with a stop cock. Said test tube was stored at 25° C. for 11 days or 20 days under irradiation of 2500 Lux (a D65 lamp was used as the light source). The evaluation compound after 11 days or 20 days of irradiation was determined by an HPLC apparatus. Survival rate (%) of the evaluation compound was calculated by the following formula. Survival rate of evaluation compound (%)=amount of evaluation compound after 11 days or 20 days of irradiation (mg)/weighed value of evaluation compound (mg)×100 <HPLC Conditions> • Apparatus: A 1200 series (manufactured by Agilent Technologies, Inc.), • Column: YMC-Pack C4, A-802, 150×4.6 mm I.D., S-5 μm, 120 A (manufactured by YMC), • Mobile phase: A: water, B: acetonitrile, A/B: 35/65, • Column temperature: room temperature, • Flow rate: 1.0 mL/min.
IC50 (human CRF receptor I [1]) [nM],IC50 (human CRF receptor I [2]) [nM],residual ratio after 20 days (Light stability test) [%],Compound,mean dwell time on the open arm compared to that of the vehicle group (SD rats),mean dwell time on the open arm compared to that of the vehicle group (SD rats; 10 mg/kg),increase of the frequency of escape failure for the vehicle group (rats; 10 mg/kg),increase of the frequency of escape failure for the vehicle group (rats; 3 mg/kg)
3.6,1.7,–,"CCc1cc(OC)ccc1-c1nn2c(C)cc(C(CC)CC)c2c(=O)n1C [8(25), 2-(2-ethyl-4-methoxyphenyl)-5-(1-ethylpropyl)-3,7-dimethylpyrrolo[2,1-f][1,2,4]triazin-4(3H)-one]",favorably elongated,–,–,–
14.7,9.4,–,"CCC(CC)c1cc(C)n2nc(-c3c(C)nc(N(C)C)nc3C)n(C)c(=O)c12 [8(27), 2-[2-(dimethylamino)-4,6-dimethyl-5-pyrimidinyl]-5-(1-ethylpropyl)-3,7-dimethylpyrrolo[2,1-f][1,2,4]triazin-4(3H)-one]",–,–,–,–
23.5,34.8,–,"CCC(CC)c1cc(C)n2nc(-c3ccc(OC)cc3C)n(CC(N)=O)c(=O)c12 [8(38), 2-[5-(1-ethylpropyl)-2-(4-methoxy-2-methylphenyl)-7-methyl-4-oxopyrrolo[2,1-f][1,2,4]triazin-3(4H)-yl]acetamide]",–,–,–,–
7.8,4.2,–,"CCC(CC)c1cc(C)n2nc(-c3ccc(OC)cc3C)n(CCO)c(=O)c12 [8(44), 5-(1-ethylpropyl)-3-(2-hydroxyethyl)-2-(4-methoxy-2-methylphenyl)-7-methylpyrrolo[2,1-f][1,2,4]triazin-4(3H)-one]",–,–,–,–
7.2,1.2,–,"CCC(CC)c1cc(C)n2nc(-c3sc(N(C)C)nc3Cl)n(C)c(=O)c12 [8(48), 2-[4-chloro-2-(dimethylamino)-1,3-thiazol-5-yl]-5-(1-ethylpropyl)-3,7-dimethylpyrrolo[2,1-f][1,2,4]triazin-4(3H)-one]",–,–,–,–
20.7,17.1,–,"CCCC(C)c1cc(C)n2nc(-c3cnc(OC(F)F)cc3C)n(C)c(=O)c12 (stereo not drawn) [28(10), 2-[6-(difluoromethoxy)-4-methyl-3-pyridinyl]-3,7-dimethyl-5-(1-methylbutyl)pyrrolo[2,1-f][1,2,4]triazin-4(3H)-one]",favorably elongated,–,–,–
6.1,1.8,99,"CCC(CC)c1cc(C)n2nc(-c3ccc(OC(F)(F)F)cc3Cl)n(C)c(=O)c12 [Example 8, 2-[2-chloro-4-(trifluoromethoxy)phenyl]-5-(1-ethylpropyl)-3,7-dimethylpyrrolo[2,1-f][1,2,4]triazin-4(3H)-one]",–,favorably elongated,significantly inhibited,–
5.3,3.2,–,"CCC(CC)c1cc(C)n2nc(-c3cnc(OC(F)F)cc3C)n(C)c(=O)c12 [Example 13, 2-[6-(difluoromethoxy)-4-methyl-3pyridinyl]-5-(1-ethylpropyl)-3,7-dimethylpyrrolo[2,1-f][1,2,4]triazin-4(3H)-one]",–,–,–,significantly inhibited
2.1,1.9,–,"CCCC(C)c1cc(C)n2nc(-c3ccc(SC)cc3Cl)n(C)c(=O)c12 (stereo not drawn) [Example 22, 2-[2-chloro-4-(methylthio)phenyl]-3,7-dimethyl-5-(1-methylbutyl)pyrrolo[2,1-f][1,2,4]triazin-4(3H)-one]",–,–,–,significantly inhibited
11,9.6,–,"CCn1c(-c2ccc(SC)cc2C)nn2c(C)cc(C(C)C)c2c1=O [Example 23, 3-ethyl-5-isopropyl-7-methyl-2-[2-methyl-4-(methylthio)phenyl]pyrrolo[2,1-f][1,2,4]triazin-4(3H)-one]",–,favorably elongated,–,–
5.2,5.8,–,"CCC(CC)c1cc(C)n2nc(-c3ncc(OC)cc3Cl)n(C)c(=O)c12 [Example 24(21), 2-(3-chloro-5-methoxy-2-pyridinyl)-5-(1-ethylpropyl)-3,7-dimethylpyrrolo[2,1-f][1,2,4]triazin-4(3H)-one]",–,–,significantly inhibited,–
4.9,3.5,–,"CCN(CC)c1cc(C)n2nc(-c3ccc(OC)cc3Cl)n(C)c(=O)c12 [Example 65, 2-(2-chloro-4-methoxyphenyl)-5-(diethylamino)-3,7-dimethylpyrrolo[2,1-f][1,2,4]triazin-4(3H)-one]",–,–,–,–
